Reference: patent US6281214A, “Biphenyl derivatives” (Eisai Co., Ltd, priority 1994, dated 2001)
pKi: −log10 of the molar value.

How the values were obtained:
Design in all cases: species or system SD rats
serotonin S2 receptor = target: T1, serotonin S2 receptor (Rattus norvegicus, UniProt P14842); assay: serotonin S2 receptor binding test ([3H] Ketanserin Binding Test); details: 1 nM [3H] Ketanserin, rat cortex, 37° C., 15 minutes
T1 construct: The receptor fraction prepared from the cortex was molten and suspended; from tissue; host or cells: cerebral cortex of SD rats (membrane fraction)
T1 sequence (P14842 whole entry): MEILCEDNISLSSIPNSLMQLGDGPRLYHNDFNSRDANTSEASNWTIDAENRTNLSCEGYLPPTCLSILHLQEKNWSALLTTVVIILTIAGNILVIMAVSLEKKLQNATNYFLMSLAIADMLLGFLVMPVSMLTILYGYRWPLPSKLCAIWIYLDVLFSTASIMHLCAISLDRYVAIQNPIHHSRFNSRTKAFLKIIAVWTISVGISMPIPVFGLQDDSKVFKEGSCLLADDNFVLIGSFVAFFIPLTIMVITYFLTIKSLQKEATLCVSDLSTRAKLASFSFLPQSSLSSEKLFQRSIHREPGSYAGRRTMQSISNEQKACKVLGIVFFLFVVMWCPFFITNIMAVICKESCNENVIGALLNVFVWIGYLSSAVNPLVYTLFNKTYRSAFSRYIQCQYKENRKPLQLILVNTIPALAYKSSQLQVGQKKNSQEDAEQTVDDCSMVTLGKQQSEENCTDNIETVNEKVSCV
Outline: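 Ki values came from probit IC50s corrected for radioligand concentration and Kd (Scatchard). Binding used 1 nM [3H]ketanserin with SD rat cortex membrane fractions, 15 min at 37 °C in Tris-HCl pH 7.4. Bound radioactivity was measured after GF/B filtration, with methysergide for nonspecific binding.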

dopamine D2 receptor = target: T2, dopamine D2 receptor (Rattus norvegicus, UniProt P61169); assay: dopamine D2 receptor binding test ([3H] Spiperone Binding Test); details: 1 nM [3H] Spiperone, rat corpus striatum, room temperature, 60 minutes; read-out: Ki value, dopamine D2 receptor
T2 construct: the receptor fraction prepared from the corpus striatum was molten and suspended; from tissue; host or cells: corpus striatum of SD rats (membrane fraction)
T2 sequence (P61169 whole entry): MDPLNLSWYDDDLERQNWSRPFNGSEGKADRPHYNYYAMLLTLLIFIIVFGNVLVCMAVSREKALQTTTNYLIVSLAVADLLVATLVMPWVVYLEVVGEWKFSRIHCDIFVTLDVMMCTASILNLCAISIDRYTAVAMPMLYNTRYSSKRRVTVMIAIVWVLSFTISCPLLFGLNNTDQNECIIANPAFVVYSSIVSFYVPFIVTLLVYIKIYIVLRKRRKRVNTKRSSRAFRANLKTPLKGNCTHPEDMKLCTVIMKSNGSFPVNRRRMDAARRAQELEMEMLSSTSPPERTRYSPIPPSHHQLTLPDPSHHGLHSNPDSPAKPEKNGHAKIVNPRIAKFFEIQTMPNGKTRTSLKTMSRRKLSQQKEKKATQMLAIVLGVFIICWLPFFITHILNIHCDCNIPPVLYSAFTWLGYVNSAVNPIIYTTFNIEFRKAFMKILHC
Outline: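 Rat (SD, 6–8 weeks) corpus striatum membranes in 50 mM Krebs-Tris pH 7.4 were incubated with 1 nM [3H]spiperone at room temperature for 60 minutes, with nonspecific binding defined by excess spiperone. IC50 came from probit analysis; Ki was derived using radioligand concentration and Scatchard Kd.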

adrenergic α1 receptor = adrenergic α1 receptor binding test ([3H] Prazosin Binding Test); details: 1 nM [3H] Prazosin, rat cortex, room temperature, 60 minutes
Outline: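 Rat (SD, 6-8 weeks) cerebral cortex membranes in 50 mM Tris-HCl pH 7.4 incubated with 1 nM [3H]prazosin for 60 min at room temperature; nonspecific binding defined with phentolamine. IC50 by probit method, converted to Ki using radioligand concentration and Scatchard-derived Kd.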

| SMILES | pKi (serotonin S2 receptor) | pKi (dopamine D2 receptor) | pKi (adrenergic α1 receptor) |
| --- | --- | --- | --- |
| CCN1CCN(c2cc(-c3ccc(F)cc3C)c(Cl)c(S(=O)(=O)CC3CC3)c2)CC1 [Example 148, 1-Ethyl-4-{3-[2(4-fluorotolyl)]-4-chloro-5-cyclopropylmethylsulfonyl}phenylpiperazine] | 7.65 | 7.92 | 6.56 |
| CCN1CCN(c2cc(-c3ccccc3)c(OC)c(-c3ccccc3)c2)CC1 [Example 56, 1-Ethyl-4-(3,5-diphenyl-4-methoxy)phenylpiperazine] | 6.67 | 6.95 | 6.30 |
| CCC(F)c1cc(N2CCN(CC)CC2)cc(-c2ccc(F)cc2F)c1Cl (stereo not drawn) [Example 144, 1-Ethyl-4-[3-(2,4-difluorophenyl)-4-chloro-5-(1-fluoropropyl)]phenylpiperazine] | 7.80 | 9.09 | 7.17 |
| CC[C@H](F)c1cc(N2CCN(C)CC2)cc(-c2ccccc2C)c1Cl [Example 221, 1-Methyl-4-{3-(2-tolyl)-4-chloro-5-[1-(S)-fluoropropyl]}phenylpiperazine] | 8.34 | 8.46 | 6.31 |
| CCCS(=O)(=O)c1cc(N2CCN(C)CC2)cc(-c2ccccc2Cl)c1Cl [Example 180, 1-Methyl-4-[3-(2-chlorophenyl)-4-chloro-5-propanesulfonyl]phenylpiperazine] | 8.46 | 7.89 | < 7.00 |
| CCN1CCN(c2cc(CCO)cc(-c3ccccc3)c2OC)CC1 [Example 67, 1-Ethyl-4-[2-methoxy-3-phenyl-5-(2-hydroxyethyl)]phenylpiperazine] | < 6.00 | < 6.00 | 6.16 |
| CCCc1cc(N2CCN(CC)CC2)cc(-c2cccc(F)c2)c1OC [Example 101, 1-Ethyl-4-[3-(3-fluorophenyl)-4-methoxy-5-propyl]phenylpiperazine] | 6.58 | 6.93 | < 6.00 |
| CCC(F)c1cc(N2CCN(CC)CC2)cc(-c2ccccc2C)c1C#N (stereo not drawn) [Example 164, 1-Ethyl-4-[3-(2-tolyl)-4-cyano-5-(1-fluoropropyl)]phenylpiperazine] | 7.92 | 8.79 | < 6.00 |
| CCCc1cc(N2CCN(CC)CC2)cc(-c2ccc(F)cc2)c1OC [Example 65] | 7.58 | 8.18 | 7.10 |
| CCCS(=O)(=O)Nc1cc(N2CCN(CC)CC2)cc(-c2ccccc2C#N)c1Cl [Example 197, 1-Ethyl-4-[3-(2-cyanophenyl)-4-chloro-5-propanesulfonylamino]phenylpiperazine] | 8.05 | 8.85 | 7.50 |
| CCC(F)c1cc(N2CCN(C)CC2)cc(-c2ccccc2C#N)c1Cl (stereo not drawn) [Example 20, 1-Methyl-4-[3-(2-cyanophenyl)-4-chloro-5-(1-fluoropropyl)]phenylpiperazine] | 8.21 | 8.55 | 6.50 |
| CCNS(=O)(=O)c1cc(N2CCN(CC)CC2)cc(-c2ccccc2)c1OC [Example 123, 1-Ethyl-4-(3-phenyl-4-methoxy-5-ethylaminofonyl)phenylpiperazine] | 7.75 | 7.57 | < 6.00 |
| CCCCC(F)c1cc(N2CCN(CC)CC2)cc(-c2ccccc2)c1OC (stereo not drawn) [Example 48, 1-Ethyl-4-[3-phenyl-4-methoxy-5-(1-fluoropentyl)]phenylpiperazine] | 8.36 | 7.59 | < 6.00 |
| CCN1CCN(c2cc(-c3ccccc3)c(OC)c(S(=O)(=O)CCCOc3ccc(F)cc3)c2)CC1 [Example 181, 1-Ethyl-4-{3-phenyl-4-methoxy-5-[3-(4-fluorophenoxy)propane]sulfonyl}phenylpiperazine] | 9.30 | 7.58 | < 7.00 |
| CCN1CCN(c2cc(-c3ccc(F)cc3)c(OC)cc2C(C)C)CC1 [Example 79] | 6.72 | 7.55 | 7.16 |
| CCCS(=O)(=O)Nc1cc(N2CCN(CC)CC2)cc(-c2ccccc2C)c1Cl [Example 153, 1-Ethyl-4-[3-(2-tolyl)-4-chloro-5-propanesulfonylamino]phenylpiperazine] | 8.38 | 8.82 | 7.16 |
